From the NIST ThermoML archive (doi:10.1016/j.jct.2005.06.011)
Numbers after ± are expanded uncertainties.

Assays:
[1] = xn = mol fraction of the nth substance listed; conditions: 101 kPa, Liquid; for speed of sound: Linear variable-path acoustic interferometer
[2] = refractive index (Na D-line) (dimensionless); xn = mol fraction of the nth substance listed; conditions: 101 kPa, Liquid

CC1CCCCC1 [methylcyclohexane] + CC(C)CO
Conditions | mass density, 298.15 K [kg/m3] | mass density, 303.15 K [kg/m3] | mass density, 308.15 K [kg/m3] | refractive index, 298.15 K | refractive index, 303.15 K | refractive index, 308.15 K | speed of sound, 298.15 K [m/s] | viscosity, 298.15 K [mPa·s] | viscosity, 303.15 K [mPa·s] | viscosity, 308.15 K [mPa·s]
[1], x1 = 0.1003 | 802.66 ± 8.1 | 798.47 ± 8 | 794.29 ± 8 | – | – | – | 1175 ± 4 | 2.499 ± 0.031 | 2.17 ± 0.027 | 1.841 ± 0.023
[1], x1 = 0.2006 | 796.44 ± 8 | 792.18 ± 7.9 | 787.91 ± 7.9 | – | – | – | 1179 ± 4 | 2.037 ± 0.025 | 1.79 ± 0.023 | 1.542 ± 0.02
[1], x1 = 0.3008 | 790.71 ± 7.9 | 786.35 ± 7.9 | 782.02 ± 7.8 | – | – | – | 1183 ± 4 | 1.63 ± 0.021 | 1.44 ± 0.018 | 1.248 ± 0.016
[1], x1 = 0.4037 | 785.47 ± 7.9 | 781.09 ± 7.8 | 776.69 ± 7.8 | – | – | – | 1188 ± 4 | 1.359 ± 0.018 | 1.209 ± 0.016 | 1.058 ± 0.014
[1], x1 = 0.5066 | 780.72 ± 7.8 | 776.29 ± 7.8 | 771.86 ± 7.7 | – | – | – | 1193 ± 4 | 1.12 ± 0.015 | 1.017 ± 0.013 | 0.9138 ± 0.012
[1], x1 = 0.6052 | 776.53 ± 7.8 | 772.08 ± 7.7 | 767.64 ± 7.7 | – | – | – | 1198 ± 4 | 0.9911 ± 0.013 | 0.906 ± 0.012 | 0.821 ± 0.011
[1], x1 = 0.7038 | 772.84 ± 7.8 | 768.37 ± 7.7 | 763.92 ± 7.7 | – | – | – | 1202 ± 4 | 0.8637 ± 0.012 | 0.7964 ± 0.011 | 0.729 ± 0.01
[1], x1 = 0.8025 | 769.44 ± 7.7 | 764.99 ± 7.7 | 760.54 ± 7.6 | – | – | – | 1207 ± 4 | 0.7897 ± 0.011 | 0.7317 ± 0.01 | 0.6738 ± 0.0095
[1], x1 = 0.9011 | 766.63 ± 7.7 | 762.18 ± 7.7 | 757.75 ± 7.6 | – | – | – | 1212 ± 4 | 0.7162 ± 0.01 | 0.6676 ± 0.0094 | 0.6189 ± 0.0088
[1], x1 = 1 | 764.99 ± 7.7 | 760.66 ± 7.6 | 756.3 ± 7.6 | – | – | – | 1217 ± 4 | 0.6757 ± 0.0095 | 0.631 ± 0.0089 | 0.5902 ± 0.0085
[2], x1 = 0.1003 | – | – | – | 1.397 ± 0.0013 | 1.3945 ± 0.0013 | 1.392 ± 0.0013 | – | – | – | –
[2], x1 = 0.2006 | – | – | – | 1.4 ± 0.0013 | 1.3975 ± 0.0013 | 1.395 ± 0.0013 | – | – | – | –
[2], x1 = 0.3008 | – | – | – | 1.4031 ± 0.0013 | 1.4005 ± 0.0013 | 1.3979 ± 0.0013 | – | – | – | –
[2], x1 = 0.4037 | – | – | – | 1.4059 ± 0.0013 | 1.4033 ± 0.0013 | 1.4007 ± 0.0013 | – | – | – | –
[2], x1 = 0.5066 | – | – | – | 1.4088 ± 0.0013 | 1.4061 ± 0.0013 | 1.4034 ± 0.0013 | – | – | – | –
[2], x1 = 0.6052 | – | – | – | 1.4114 ± 0.0013 | 1.4088 ± 0.0013 | 1.4062 ± 0.0013 | – | – | – | –
[2], x1 = 0.7038 | – | – | – | 1.4141 ± 0.0013 | 1.4115 ± 0.0013 | 1.409 ± 0.0013 | – | – | – | –
[2], x1 = 0.8025 | – | – | – | 1.4167 ± 0.0013 | 1.414 ± 0.0013 | 1.4113 ± 0.0013 | – | – | – | –
[2], x1 = 0.9011 | – | – | – | 1.4194 ± 0.0013 | 1.4165 ± 0.0013 | 1.4135 ± 0.0013 | – | – | – | –
[2], x1 = 1 | – | – | – | 1.4217 ± 0.0013 | 1.4192 ± 0.0013 | 1.4163 ± 0.0013 | – | – | – | –

CC1CCCCC1 [methylcyclohexane] + CC(C)O
Conditions | mass density, 298.15 K [kg/m3] | mass density, 303.15 K [kg/m3] | mass density, 308.15 K [kg/m3] | refractive index, 298.15 K | refractive index, 303.15 K | refractive index, 308.15 K | speed of sound, 298.15 K [m/s] | viscosity, 298.15 K [mPa·s] | viscosity, 303.15 K [mPa·s] | viscosity, 308.15 K [mPa·s]
[1], x1 = 0.1001 | 777.28 ± 7.8 | 772.86 ± 7.7 | 768.43 ± 7.7 | – | – | – | 1151 ± 4 | 1.634 ± 0.02 | 1.441 ± 0.017 | 1.248 ± 0.015
[1], x1 = 0.2033 | 774.39 ± 7.8 | 769.88 ± 7.7 | 765.38 ± 7.7 | – | – | – | 1159 ± 4 | 1.35 ± 0.017 | 1.197 ± 0.015 | 1.044 ± 0.013
[1], x1 = 0.3065 | 771.5 ± 7.7 | 766.95 ± 7.7 | 762.32 ± 7.6 | – | – | – | 1166 ± 4 | 1.117 ± 0.014 | 1.004 ± 0.013 | 0.8905 ± 0.011
[1], x1 = 0.4049 | 769.55 ± 7.7 | 764.95 ± 7.7 | 760.33 ± 7.6 | – | – | – | 1173 ± 4 | 0.9645 ± 0.012 | 0.8716 ± 0.011 | 0.7785 ± 0.01
[1], x1 = 0.5034 | 767.6 ± 7.7 | 763.01 ± 7.7 | 758.34 ± 7.6 | – | – | – | 1181 ± 4 | 0.8434 ± 0.011 | 0.7708 ± 0.01 | 0.698 ± 0.0095
[1], x1 = 0.6022 | 766.22 ± 7.7 | 761.62 ± 7.6 | 757 ± 7.6 | – | – | – | 1188 ± 4 | 0.7815 ± 0.01 | 0.7193 ± 0.0098 | 0.6573 ± 0.009
[1], x1 = 0.7009 | 765.17 ± 7.7 | 760.61 ± 7.6 | 756 ± 7.6 | – | – | – | 1195 ± 4 | 0.7197 ± 0.0098 | 0.6681 ± 0.0092 | 0.6167 ± 0.0086
[1], x1 = 0.8021 | 764.75 ± 7.7 | 760.25 ± 7.6 | 755.69 ± 7.6 | – | – | – | 1203 ± 4 | 0.703 ± 0.0097 | 0.6546 ± 0.0091 | 0.6061 ± 0.0085
[1], x1 = 0.9032 | 764.43 ± 7.7 | 759.88 ± 7.6 | 755.37 ± 7.6 | – | – | – | 1210 ± 4 | 0.6864 ± 0.0095 | 0.641 ± 0.009 | 0.5955 ± 0.0085
[1], x1 = 1 | 764.99 ± 7.7 | 760.66 ± 7.6 | 756.3 ± 7.6 | – | – | – | 1217 ± 4 | 0.6757 ± 0.0095 | 0.631 ± 0.0089 | 0.5902 ± 0.0085
[2], x1 = 0.1001 | – | – | – | 1.3822 ± 0.0012 | 1.3798 ± 0.0012 | 1.3775 ± 0.0012 | – | – | – | –
[2], x1 = 0.2033 | – | – | – | 1.3879 ± 0.0012 | 1.3854 ± 0.0012 | 1.3829 ± 0.0012 | – | – | – | –
[2], x1 = 0.3065 | – | – | – | 1.3936 ± 0.0012 | 1.3909 ± 0.0012 | 1.3883 ± 0.0012 | – | – | – | –
[2], x1 = 0.4049 | – | – | – | 1.3983 ± 0.0012 | 1.3956 ± 0.0012 | 1.3928 ± 0.0012 | – | – | – | –
[2], x1 = 0.5034 | – | – | – | 1.4029 ± 0.0012 | 1.4001 ± 0.0012 | 1.3973 ± 0.0012 | – | – | – | –
[2], x1 = 0.6022 | – | – | – | 1.4068 ± 0.0013 | 1.404 ± 0.0013 | 1.4013 ± 0.0013 | – | – | – | –
[2], x1 = 0.7009 | – | – | – | 1.4106 ± 0.0013 | 1.408 ± 0.0013 | 1.4053 ± 0.0013 | – | – | – | –
[2], x1 = 0.8021 | – | – | – | 1.4145 ± 0.0013 | 1.4118 ± 0.0013 | 1.4092 ± 0.0013 | – | – | – | –
[2], x1 = 0.9032 | – | – | – | 1.4184 ± 0.0013 | 1.4158 ± 0.0013 | 1.413 ± 0.0013 | – | – | – | –
[2], x1 = 1 | – | – | – | 1.4217 ± 0.0013 | 1.4192 ± 0.0013 | 1.4163 ± 0.0013 | – | – | – | –
